Consider 9 molecules from patent US12044651B2, “Sensor device and methods” (SCENTIAN BIO LIMITED, priority 2016, dated 2024).

The subject of one test is BdorOBP2. The note with it: ref 39; cited from earlier work.
A further test deals with T1, OR35a (Drosophila melanogaster, UniProt Q9V3Q2).
T1 sequence (Q9V3Q2 1-409): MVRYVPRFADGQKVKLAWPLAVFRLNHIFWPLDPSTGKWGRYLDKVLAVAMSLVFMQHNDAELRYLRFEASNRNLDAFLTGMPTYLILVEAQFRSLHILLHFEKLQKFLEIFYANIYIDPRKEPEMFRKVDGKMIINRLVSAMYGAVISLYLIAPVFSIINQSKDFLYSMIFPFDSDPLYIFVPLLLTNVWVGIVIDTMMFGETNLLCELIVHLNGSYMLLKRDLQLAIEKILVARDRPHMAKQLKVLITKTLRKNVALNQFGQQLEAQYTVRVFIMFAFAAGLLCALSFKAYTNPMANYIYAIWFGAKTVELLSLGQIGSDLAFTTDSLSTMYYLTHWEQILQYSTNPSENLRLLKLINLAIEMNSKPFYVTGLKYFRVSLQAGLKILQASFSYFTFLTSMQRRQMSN
Put plainly: EIS sensor, Or35a liposomes on gold electrode (Example 1). The note with it: lowest three concentrations. It is filed as binding. The protocol:
(§1) Liposomes were prepared using a phospholipid solution produced by evaporating solutions containing: phosphatidylethanolamine (PE), phosphatidylserine (PS), phosphatidylcholine (PC), and cholesterol (CH) at a molar ratio of 5:3:3:1 in a small glass tube under a stream of N2 gas, then desiccating under vacuum for 1 h. […] To promote the formation of liposomes, 10 freeze/thaw steps were performed by transferring the tube from liquid nitrogen to a 40° C. water bath. Liposomes were then sized by passing the lipid solution 11 times through a 100-nm polycarbonate membrane using an Avestin LiposoFAST extruder unit (Avestin, Germany). Glycerol was added at 10% of the final volume and aliquots at 10 mg/mL were snap frozen in liquid nitrogen and stored at -80° C. Prior to their use, liposomes were defrosted on ice and then destabilized by incubating with 0.2% CHAPS for 15 min at room temperature. Then 200 μg of purified odorant receptor^14 was added to 1 mg of liposomes and rotated at 10 rpm for 1 h at room temperature. […] The Bio-Beads were removed after each incubation period. The OR integrated liposomes were pelleted by centrifugation at 100,000 g for 1 h, and were resuspended in 500 μL of rehydration buffer. Integration of OrXs into liposomes was assessed by density gradient ultracentrifugation (DGU) using Accudenz (Accurate Chemical & Scientific Corporation, USA). […] The sample was then centrifuged at 100,000 g for 4 h at 4° C. Liposomes will float to the top of the gradient after Accudenz DGU due to their low density. 1.3 Electrode Cleaning Gold disk (2 mm) electrodes were cleaned with polishing with Alumina paste for 2 minutes, ultra-sonicated in pure ethanol and then Milli-Q water for 5 minutes each. […] Charge transfer resistance (Rct) of electrodes were calculated by fitting obtained data to a Randles' equivalent circuit [Rs+CPE/(Rct+W)] comprising of a solution resistance (Rs) in series with a constant phase element (CPE) and in parallel with charge transfer resistance (Rct) and Warburg diffusion element. […]

The target in a further test is T2, Or10a (Drosophila melanogaster, UniProt Q9VYZ1).
T2 sequence (Q9VYZ1 1-406): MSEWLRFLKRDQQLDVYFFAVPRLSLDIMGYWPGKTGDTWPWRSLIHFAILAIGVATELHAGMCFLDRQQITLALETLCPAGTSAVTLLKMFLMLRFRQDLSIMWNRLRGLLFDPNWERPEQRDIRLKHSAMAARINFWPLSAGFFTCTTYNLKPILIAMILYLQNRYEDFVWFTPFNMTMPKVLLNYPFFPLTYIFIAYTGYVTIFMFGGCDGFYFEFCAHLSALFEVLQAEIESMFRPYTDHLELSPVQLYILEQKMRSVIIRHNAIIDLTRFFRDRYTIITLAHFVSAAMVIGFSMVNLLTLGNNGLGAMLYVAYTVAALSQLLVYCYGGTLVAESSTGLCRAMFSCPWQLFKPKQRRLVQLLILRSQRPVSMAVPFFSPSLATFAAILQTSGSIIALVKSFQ
Put plainly: EIS sensor, Or10a liposomes on gold electrode (Example 1). The format is binding. The settings on record: lowest three concentrations. The protocol: as §1

For another test, the target named is T3, Or22a (Drosophila melanogaster, UniProt P81909).
T3 sequence (P81909 1-397): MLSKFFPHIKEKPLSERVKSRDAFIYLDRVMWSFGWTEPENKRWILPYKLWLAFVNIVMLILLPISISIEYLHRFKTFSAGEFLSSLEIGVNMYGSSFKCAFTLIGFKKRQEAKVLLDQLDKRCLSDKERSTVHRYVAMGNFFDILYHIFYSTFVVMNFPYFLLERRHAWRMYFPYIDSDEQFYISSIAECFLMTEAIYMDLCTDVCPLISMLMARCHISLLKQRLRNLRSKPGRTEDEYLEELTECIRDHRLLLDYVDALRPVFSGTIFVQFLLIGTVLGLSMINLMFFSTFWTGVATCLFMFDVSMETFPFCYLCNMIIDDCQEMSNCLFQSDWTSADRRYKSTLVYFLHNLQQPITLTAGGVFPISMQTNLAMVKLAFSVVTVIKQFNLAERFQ
Put plainly: EIS sensor, Or22a liposomes on gold electrode (Example 1). It is filed as binding. The settings on record: lowest three concentrations. The protocol: as §1

As to `C=CCc1ccc(OC)c(OC)c1` [4-allylveratrole], the detection limit in the test with BdorOBP2 is ~10^−6 M.

As for `CCCCOC(=O)c1ccccc1C(=O)OCCCC` [dibutyl phthalate], the detection limit in the test on BdorOBP2 is given as ~10^−6 M.

For `CC(=O)OCCC(C)C` [isoamyl acetate], the detection limit in the test with BdorOBP2 is given as ~10^−6 M.

As to `COC(=O)c1ccc(O)cc1` [methy-p-hydroxyl benzoate], the detection limit with BdorOBP2 is ~10^−6 M.

Consider `O=CCc1ccccc1` [phenylacetaldehyde], for which, in the test on BdorOBP2, the detection limit is listed as ~10^−6 M.

For `CC(=O)/C=C/C1=C(C)CCCC1(C)C` [β-ionone], the detection limit in the test on BdorOBP2 was ~10^−6 M.

B1: Or35a: insect odorant receptor OrX in liposomes attached to the gold electrode of the EIS sensor (protein, UniProt Q9V3Q2 1-409, looked up)
Odorant receptor 35a: MVRYVPRFADGQKVKLAWPLAVFRLNHIFWPLDPSTGKWGRYLDKVLAVAMSLVFMQHNDAELRYLRFEASNRNLDAFLTGMPTYLILVEAQFRSLHILLHFEKLQKFLEIFYANIYIDPRKEPEMFRKVDGKMIINRLVSAMYGAVISLYLIAPVFSIINQSKDFLYSMIFPFDSDPLYIFVPLLLTNVWVGIVIDTMMFGETNLLCELIVHLNGSYMLLKRDLQLAIEKILVARDRPHMAKQLKVLITKTLRKNVALNQFGQQLEAQYTVRVFIMFAFAAGLLCALSFKAYTNPMANYIYAIWFGAKTVELLSLGQIGSDLAFTTDSLSTMYYLTHWEQILQYSTNPSENLRLLKLINLAIEMNSKPFYVTGLKYFRVSLQAGLKILQASFSYFTFLTSMQRRQMSN
modifications: in liposomes
notes: insect odorant receptor OrX in liposomes attached to the gold electrode of the EIS sensor
Regarding B1, in the test with OR35a, the “Sensitivity of the sensor (slope of the linear range)” value was 0.116 units/[log(conc/M)].

B2: Or10a: insect odorant receptor OrX in liposomes attached to the gold electrode of the EIS sensor (protein, UniProt Q9VYZ1 1-406, looked up)
Odorant receptor 10a: MSEWLRFLKRDQQLDVYFFAVPRLSLDIMGYWPGKTGDTWPWRSLIHFAILAIGVATELHAGMCFLDRQQITLALETLCPAGTSAVTLLKMFLMLRFRQDLSIMWNRLRGLLFDPNWERPEQRDIRLKHSAMAARINFWPLSAGFFTCTTYNLKPILIAMILYLQNRYEDFVWFTPFNMTMPKVLLNYPFFPLTYIFIAYTGYVTIFMFGGCDGFYFEFCAHLSALFEVLQAEIESMFRPYTDHLELSPVQLYILEQKMRSVIIRHNAIIDLTRFFRDRYTIITLAHFVSAAMVIGFSMVNLLTLGNNGLGAMLYVAYTVAALSQLLVYCYGGTLVAESSTGLCRAMFSCPWQLFKPKQRRLVQLLILRSQRPVSMAVPFFSPSLATFAAILQTSGSIIALVKSFQ
modifications: in liposomes
notes: as for B1
Regarding B2, in the test with Or10a, the “Sensitivity of the sensor (slope of the linear range)” value is 0.313 units/[log(conc/M)].

B3: Or22a: insect odorant receptor OrX in liposomes attached to the gold electrode of the EIS sensor (protein, UniProt P81909 1-397, looked up)
Odorant receptor 22a: MLSKFFPHIKEKPLSERVKSRDAFIYLDRVMWSFGWTEPENKRWILPYKLWLAFVNIVMLILLPISISIEYLHRFKTFSAGEFLSSLEIGVNMYGSSFKCAFTLIGFKKRQEAKVLLDQLDKRCLSDKERSTVHRYVAMGNFFDILYHIFYSTFVVMNFPYFLLERRHAWRMYFPYIDSDEQFYISSIAECFLMTEAIYMDLCTDVCPLISMLMARCHISLLKQRLRNLRSKPGRTEDEYLEELTECIRDHRLLLDYVDALRPVFSGTIFVQFLLIGTVLGLSMINLMFFSTFWTGVATCLFMFDVSMETFPFCYLCNMIIDDCQEMSNCLFQSDWTSADRRYKSTLVYFLHNLQQPITLTAGGVFPISMQTNLAMVKLAFSVVTVIKQFNLAERFQ
modifications: in liposomes
notes: as for B1
Turning to B3, the “Sensitivity of the sensor (slope of the linear range)” value with Or22a was 0.156 units/[log(conc/M)].
